Test results taken from patent publication US8772318B2, “Methods and compositions related to targeting monoacylglycerol lipase” (The Scripps Research Institute, priority 2008, dated 2014).

What was measured:
[1] = biological target: T1, MAGL (Homo sapiens, UniProt Q99685); experiment: shRNA knockdown of MAGL, activity by ABPP and C20:4 MAG hydrolysis; type: cell-based; settings: aggressive cancer lines, ABPP
T1 construct: endogenous in cells; host or cells: human cancer lines (C8161, MUM2B, MUM2C, SKOV3, OVCAR3, 231MFP, MCF7)
T1 sequence (Q99685 1-303): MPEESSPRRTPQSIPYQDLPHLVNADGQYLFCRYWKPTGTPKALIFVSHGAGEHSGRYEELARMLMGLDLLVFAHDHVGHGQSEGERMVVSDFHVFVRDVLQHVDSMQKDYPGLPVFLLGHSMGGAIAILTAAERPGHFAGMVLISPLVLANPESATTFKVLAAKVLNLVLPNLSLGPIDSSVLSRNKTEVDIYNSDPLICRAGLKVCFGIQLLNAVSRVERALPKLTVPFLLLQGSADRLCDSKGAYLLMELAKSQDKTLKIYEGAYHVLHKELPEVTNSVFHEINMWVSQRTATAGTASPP
Experimental: ABPP and hydrolytic activity assays of cancer cell proteomes. Identification and comparative quantitation of serine hydrolase activities from cancer cell proteomes by ABPP-MudPIT or gel-based ABPP was conducted as previously described using FP-biotin (5 μM) and FP-rhodamine (2 μM), respectively (Jessani et al., Proc. Natl. Acad. Sci. U.S.A 99:10335-10340, 2002; and Jessani et al., Nat. Methods 2:691-697, 2005). C20:4 MAG hydrolytic activity assays were performed as described previously (Blankman et al., Chem. Biol. 14:1347-1356, 2007). For ABPP experiments, cell lysate proteomes were treated with 2 μM FP-rhodamine for 30 min at room temperature (50 μl total reaction volume). Reactions were quenched with one volume of standard 4×SDS/PAGE loading buffer (reducing), separated by SDS/PAGE (10% acrylamide), and visualized in-gel with a Hitachi FMBio IIe flatbed fluorescence scanner (MiraiBio). Integrated band intensities were calculated for the labeled proteins and averaged from three independent cell samples to determine the level of each enzyme activity. IC50 values were determined from dose-response curves from three trials at each inhibitor concentration by using SigmaPlot 10.0. MAGL expression was also assessed by western blotting using standard procedures.
RNA interference studies in human cancer cell lines. […]

[2] = test system: human cancer cell lines (C8161, SKOV3, 231MFP, MUM2C, OVCAR3); experiment: Lipid measurements in cancer cells; type: cell-based; settings: aggressive melanoma, ovarian, breast cancer cells
Experimental: Pharmacological inhibition of MAGL in cancer cells. Pharmacological inhibition studies were conducted as described previously (Chiang et al., Chem. Biol. 13:1041-1050, 2006). Cancer cells were maintained in RPMI medium 1640 with 10% (v/v) fetal calf serum at 37° C. in a humidified atmosphere of 5% CO2/95% air. At 80% confluency, cells were trypsinized and counted using a hemocytometer, and 1×10^6 cells were plated in 6 cm dishes (subconfluent). […] After incubation for 4 hr, the cells were harvested and analyzed by ABPP or LC-MS.
Lipid measurements in cancer cells. Lipid measurements were conducted similarly to protocols described previously (Chiang et al., 2006; supra). Cancer cells were grown in serum-free media for 4 hrs to minimize the contribution of serum-derived lipids to the cellular profiles. The cells (1×10^6 cells/6 cm dish, 80% confluency) were washed with twice with phosphate buffer saline (PBS), isolated by centrifugation at 1,400×g, and dounce-homogenized in 4 ml of a 2:1:1 mixture of chloroform:methanol:Tris buffer. Samples were homogenized in the presence of the following synthetic standards: C12:0 MAGE (10 nmol), C15:0 FFA (10 nmol). Organic and aqueous layers were separated by centrifugation at 2000×g for 5 min and the organic layer was collected. The aqueous layer was acidified (for metabolites such as LPA) by adding 5% formic acid, followed by the addition of 2 ml chloroform. The mixture was vortexed, and the organic layers were combined, dried down under N2 and dissolved in 100 μl chloroform, of which 30 μl was analyzed by LC-MS.
LC-MS analysis was performed by using an Agilent 1100 LC-MSD SL instrument. […] Mobile phase A was composed of a 95:5 ratio of water:methanol, and mobile phase B consisted of 2-propanol, methanol, and water in a 60:35:5 ratio. Solvent modifiers such as 0.1% formic acid and 0.1% ammonium hydroxide were used to assist ion formation as well as to improve the LC resolution in both positive and negative ionization modes, respectively. The flow rate for each run started at 0.1 ml/min for 5 min, to alleviate backpressure associated with injecting chloroform. The gradient started at 0% B and increased linearly to 100% B over the course of 45 min with a flow rate of 0.4 ml/min, followed by an isocratic gradient of 100% B for 17 min at 0.5 ml/min before equilibrating for 8 min at 0% B with a flow rate of 0.5 ml/min. MS analysis was performed with an electrospray ionization (ESI) source. The capillary voltage was set to 3.0 kV, and the fragmentor voltage was set to 100 V. The drying gas temperature was 350° C., the drying gas flow rate was 10 L/min, and the nebulizer pressure was 35 psi.
Lipidomic analysis was performed in both targeted and untargeted mode by LC-MS analysis. Standard lipid classes were quantitated by targeting using selected ion monitoring (SIM) (except for very high-abundance metabolites which were quantitated by untargeted analysis) and identities of metabolites were confirmed by coelution of metabolites with their respective standards and mass accuracy to within 10 ppm as determined with an accurate mass Agilent 6520 Accurate Mass QTOF-MS-MS. These lipids were quantified by measuring the area under the peak and were normalized to an internal standard (C12:0 MAGE in positive mode or C15:0 FFA in negative mode). […]

[3] = biological target: T2, FAAH (Mus musculus, UniProt O08914); experiment: Competitive ABPP, mouse brain membrane proteome; type: biochemical
T2 construct: from tissue; host or cells: mouse brain membrane fraction
T2 sequence (O08914 1-579): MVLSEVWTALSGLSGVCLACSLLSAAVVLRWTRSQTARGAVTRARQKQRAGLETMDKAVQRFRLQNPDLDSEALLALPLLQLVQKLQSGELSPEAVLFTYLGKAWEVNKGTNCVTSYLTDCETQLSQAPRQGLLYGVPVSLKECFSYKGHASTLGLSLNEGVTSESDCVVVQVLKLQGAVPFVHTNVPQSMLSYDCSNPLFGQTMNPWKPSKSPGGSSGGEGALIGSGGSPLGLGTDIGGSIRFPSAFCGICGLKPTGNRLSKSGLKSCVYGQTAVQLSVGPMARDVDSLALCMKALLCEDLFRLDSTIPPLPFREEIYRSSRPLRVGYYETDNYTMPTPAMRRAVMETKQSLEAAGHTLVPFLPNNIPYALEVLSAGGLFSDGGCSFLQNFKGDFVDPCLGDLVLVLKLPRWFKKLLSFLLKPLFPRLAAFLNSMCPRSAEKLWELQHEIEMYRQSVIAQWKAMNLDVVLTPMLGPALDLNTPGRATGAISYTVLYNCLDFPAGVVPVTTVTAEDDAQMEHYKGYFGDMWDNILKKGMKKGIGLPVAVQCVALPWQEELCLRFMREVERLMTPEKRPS
Excerpt: (§1) First, serine hydrolases are susceptible to covalent inactivation by specific chemical groups that show little or no cross-reactivity with other enzyme classes. […] Second, the functional state of serine hydrolases can be collectively profiled in native biological systems using activity-based protein profiling (ABPP) methods (Cravat et al., Annu Rev Biochem 77:383-414, 2008). ABPP of serine hydrolases uses reporter-tagged fluorophosphonates (FPs), which serve as general activity-based probes for this large and diverse enzyme class (Liu et al., Proc. Natl. Acad. Sci. U.S.A. 96:14694-9, 1999). When performed in a competitive mode, ABPP can serve as a powerful screen to evaluate the potency and selectivity of small-molecule enzyme inhibitors directly in complex proteomes. The screen can be performed as described in the art, e.g., Liu et al., Proc. Natl. Acad. Sci. U.S.A. 96:14694-9, 1999; Li et al., J. Am. Chem. Soc. 129:9594-5, 2007; Leung et al., Nat. Biotech. 21:687-91, 2003; and Greenbaum et al., Mol. Cell. Proteomics 1:60-68, 2002.
(§2) Competitive activity-based protein profiling (ABPP) experiments. In vitro inhibitor selectivity was examined using a competitive ABPP method as described in the art (e.g., Li et al., J. Am. Chem. Soc. 129:9594-5, 2007; and Leung et al., Nat. Biotech. 21:687-91, 2003). Briefly, mouse brain membrane proteomes, prepared as described herein, were diluted to 1 mg/ml in PBS and pre-incubated with varying concentrations of inhibitors (1 nM to 10 μM) for 30 min at 37° C. prior to the addition of a FP-rhodamine at a final concentration of 2 μM in a 50 μl of total reaction volume. After 30 min at room temperature, the reactions were quenched with 4×SDS-PAGE loading buffer, boiled for 5 min at 90° C., subjected to SDS-PAGE, and visualized in-gel using a flatbed fluorescence scanner.
(§3) Every 10 min, 50 ul of the reaction was removed and treated with FP-rhodamine (2 μM) for 2 min, quenched with 4×SDS-PAGE loading buffer, and boiled for 5 min at 90° C. The combined reactions were subjected to SDS-PAGE and visualized in-gel using a flatbed fluorescence scanner. The percentage activity remaining was determined by measuring the integrated optical density corresponding to the MAGL or FAAH bands and the results were fit to an exponential curve to determine the pseudo-first order rate constants.

[4] = biological target: T3, ABHD6 (Mus musculus, UniProt Q8R2Y0); experiment: Competitive ABPP, mouse brain membrane proteome; type: biochemical
T3 construct: from tissue; host or cells: mouse brain membrane fraction
T3 sequence (Q8R2Y0 1-336): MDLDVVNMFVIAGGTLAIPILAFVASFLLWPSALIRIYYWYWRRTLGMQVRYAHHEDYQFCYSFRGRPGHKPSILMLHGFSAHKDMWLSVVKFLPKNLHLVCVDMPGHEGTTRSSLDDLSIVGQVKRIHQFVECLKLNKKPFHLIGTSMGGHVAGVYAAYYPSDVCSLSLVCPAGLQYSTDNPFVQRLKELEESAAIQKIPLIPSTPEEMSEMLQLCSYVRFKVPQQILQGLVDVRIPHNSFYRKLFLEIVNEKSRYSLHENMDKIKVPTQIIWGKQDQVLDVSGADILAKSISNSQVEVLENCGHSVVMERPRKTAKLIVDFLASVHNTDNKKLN
Excerpt: as §1, §2, §3

[5] = biological target: T4, MAGL (Mus musculus, UniProt O35678); experiment: Competitive ABPP, mouse brain membrane proteome; type: biochemical
T4 construct: from tissue; host or cells: mouse brain membrane fraction (C57Bl/6 mice for the in vivo studies)
T4 sequence (O35678 1-303): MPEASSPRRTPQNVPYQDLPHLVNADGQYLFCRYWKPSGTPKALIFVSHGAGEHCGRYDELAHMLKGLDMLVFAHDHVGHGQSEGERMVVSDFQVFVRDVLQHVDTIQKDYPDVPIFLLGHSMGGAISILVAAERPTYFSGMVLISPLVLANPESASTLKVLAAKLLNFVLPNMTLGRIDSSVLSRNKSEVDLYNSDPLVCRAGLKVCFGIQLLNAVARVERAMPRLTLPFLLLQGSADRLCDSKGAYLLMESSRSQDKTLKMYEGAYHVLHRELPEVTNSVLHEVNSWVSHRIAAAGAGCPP
Excerpt: as §1, §2, §3

Row | Molecule | other serine hydrolase activities [1] | FFA levels in shMAGL cells [2] | MAG levels in shMAGL cells [2] | effect on FAAH in competitive ABPP screen (FIG. 1B) [3] | effect on ABHD6 in competitive ABPP screen (FIG. 1B) [4] | effect on MAGL in competitive ABPP screen (FIG. 1B) [5]
1 | shMAGL1: short hairpin RNA oligonucleotide for MAGL, 5′-CAACTTTCAAGGTCCTTGC-3′ (SEQ ID NO:1) (expressed or natural sequence) | unaffected | corresponding reductions | significant elevations |  |  | 
2 | O=C(Oc1ccc([N+](=O)[O-])cc1)N1CCN(C(c2ccc(F)cc2)c2ccc(F)cc2)CC1 [WWL162] |  |  |  | greatly reducing activity | preserve potency | preserve potency
